What was measured:
Alternaria solani = experiment: Test F: preventive spray on tomato seedlings, tomato early blight disease rating; format: in vivo; conditions: Alternaria solani, 120 h, 50 ppm, 100 = 100% disease control, 0 = no control
In short: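 Preventive test: a day after run-off spraying with acetone/water–PEG400 suspensions (ppm), seedlings received an A. solani spore inoculum. Incubation was 48 h at 27 °C in saturated air followed by 3 days in a 20 °C chamber. Visual scores express percent disease control versus untreated plants (0–100).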

Botrytis cinerea = experiment: Test E: preventive spray on tomato seedlings, tomato Botrytis disease rating; format: in vivo; conditions: Botrytis cinerea, 120 h, 50 ppm, 100 = 100% disease control, 0 = no control
In short: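 Preventive test: one day after spraying seedlings to run-off with test suspension (ppm in acetone/water, 50–250 ppm PEG400), B. cinerea spores applied. Incubation 48 h at 20 °C saturated humidity plus 3 days at 24 °C preceded visual rating as percent disease control versus controls.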

Zymoseptoria tritici = experiment: Test A: preventive spray on wheat seedlings, wheat leaf blotch disease rating; format: in vivo; conditions: Zymoseptoria tritici, 456 h, 50 ppm, 100 = 100% disease control, 0 = no control
In short: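 Disease scored after 17 days in a 20 °C growth chamber, following 48 h at 24 °C in saturated air after spore inoculation with Z. tritici. Inoculation came one day after wheat seedlings were sprayed to run-off with test suspension (acetone/water 50/50, 50–250 ppm PEG400).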

Phakopsora pachyrhizi = experiment: Test D: preventive spray on soybean seedlings, Asian soybean rust disease rating; format: in vivo; conditions: Phakopsora pachyrhizi, 216 h, 50 ppm, 100 = 100% disease control, 0 = no control
In short: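 Seedlings of soybean were challenged with rust spores one day after a run-off spray of test suspension (acetone/water 50/50, 50–250 ppm PEG400); after 24 h saturated humidity and 8 days growth, both at 22° C, disease was scored visually.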

[1] = system: Blumeria graminis f. sp. Tritici; experiment: Test C: preventive spray on wheat seedlings, wheat powdery mildew disease rating; format: in vivo; conditions: Blumeria graminis, 192 h, 50 ppm, 100 = 100% disease control, 0 = no control
In short: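 Disease control scored visually after 8 days at 20° C, on a 0–100 scale versus untreated controls. Seedlings had received a preventive run-off spray one day before dusting with powdery mildew spores; compounds were suspended in acetone/water (50/50) containing 50–250 ppm PEG400.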

[2] = system: Puccinia recondita f. sp. Tritici; experiment: Test B: preventive spray on wheat seedlings, wheat leaf rust disease rating; format: in vivo; conditions: Puccinia recondita, 192 h, 50 ppm, 100 = 100% disease control, 0 = no control
In short: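 Preventive test: one day after spraying wheat seedlings to run-off with ppm suspensions (acetone/water 1:1, 50-250 ppm PEG400), leaf rust spores were applied. Incubation was 24 h at saturation then 7 days at 20° C.; disease scored 0-100% control relative to untreated.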

COc1ccc(Cl)c(-n2nc(C)c(=O)c(Cl)c2-c2ccc(F)cc2)c1 [Compound 105, 5-chloro-1-(2-chloro-5-methoxyphenyl)-6-(4-fluorophenyl)-3-methyl-4(1H)-pyridazinone]
pest or weed control at 50 ppm (Alternaria solani): 100% | pest or weed control at 50 ppm (Botrytis cinerea): 98% | pest or weed control at 50 ppm (Zymoseptoria tritici): 100% | pest or weed control at 50 ppm (Phakopsora pachyrhizi): 96% | melting point: 207 to 210 °C | pest or weed control at 50 ppm [1]: 95% | pest or weed control at 50 ppm [2]: 100%

COc1cc(OC)cc(-n2nc(C)c(=O)c(C)c2-c2ccc(F)cc2F)c1 [Compound 29, 6-(2,4-difluorophenyl)-1-(3,5-dimethoxyphenyl)-3,5-dimethyl-4(1H)-pyridazinone]
pest or weed control at 50 ppm (Alternaria solani): 100% | pest or weed control at 50 ppm (Botrytis cinerea): 98% | pest or weed control at 50 ppm (Zymoseptoria tritici): 100% | pest or weed control at 50 ppm (Phakopsora pachyrhizi): 99% | melting point: 124 to 127 °C | pest or weed control at 50 ppm [1]: 100% | pest or weed control at 50 ppm [2]: 100%

COc1cc(OC)c(Cl)c(-c2cc(C#N)c(=O)n(C)c2-c2c(F)cc(F)cc2F)c1 [Compound 68, 5-(2-chloro-3,5-dimethoxyphenyl)-1,2-dihydro-1-methyl-2-oxo-6-(2,4,6-trifluorophenyl)-3-pyridinecarbonitrile]
pest or weed control at 50 ppm (Alternaria solani): 99% | pest or weed control at 50 ppm (Botrytis cinerea): 93% | pest or weed control at 50 ppm (Zymoseptoria tritici): 100% | pest or weed control at 50 ppm (Phakopsora pachyrhizi): 100% | melting point: 159 to 162 °C | pest or weed control at 50 ppm [1]: 99% | pest or weed control at 50 ppm [2]: 100%

COc1cc(OC)c(Cl)c(-n2nc(Br)c(=O)c(C)c2-c2ccc(F)cc2Cl)c1 [Compound 94, 3-bromo-6-(2-chloro-4-fluorophenyl)-1-(2-chloro-3,5-dimethoxyphenyl)-5-methyl-4(1H)-pyridazinone]
pest or weed control at 50 ppm (Alternaria solani): 100% | pest or weed control at 50 ppm (Botrytis cinerea): 98% | pest or weed control at 50 ppm (Zymoseptoria tritici): 100% | pest or weed control at 50 ppm (Phakopsora pachyrhizi): 100% | melting point: 191 to 194 °C | pest or weed control at 50 ppm [1]: 100% | pest or weed control at 50 ppm [2]: 100%

CCn1c(-c2c(F)cc(F)cc2F)c(-c2cc(OC)cc(OC)c2)cc(C#N)c1=O [Compound 69, 1,2-dihydro-5-(3,5-dimethoxyphenyl)-1-ethyl-2-oxo-6-(2,4,6-trifluorophenyl)-3-pyridinecarbonitrile]
pest or weed control at 50 ppm (Alternaria solani): 99% | pest or weed control at 50 ppm (Botrytis cinerea): 93% | pest or weed control at 50 ppm (Zymoseptoria tritici): 100% | pest or weed control at 50 ppm (Phakopsora pachyrhizi): 86% | melting point: 185 to 187 °C | pest or weed control at 50 ppm [1]: 99% | pest or weed control at 50 ppm [2]: 100%

CCn1c(-c2c(F)cc(F)cc2F)c(-c2cc(OC)cc(OC)c2Cl)cc(C#N)c1=O [Compound 70, 5-(2-chloro-3,5-dimethoxyphenyl)-1,2-dihydro-1-ethyl-2-oxo-6-(2,4,6-trifluorophenyl)-3-pyridinecarbonitrile]
pest or weed control at 50 ppm (Alternaria solani): 98% | pest or weed control at 50 ppm (Botrytis cinerea): 96% | pest or weed control at 50 ppm (Zymoseptoria tritici): 100% | pest or weed control at 50 ppm (Phakopsora pachyrhizi): 100% | melting point: 171 to 173 °C | pest or weed control at 50 ppm [1]: 99% | pest or weed control at 50 ppm [2]: 100%

From US20240308968A1, “FUNGICIDAL SUBSTITUTED HETEROCYCLES” (FMC Corporation, priority 2021, published 2024)
